Reference: patent US20250186451A1, “METHODS OF TREATING CANCER WITH IAP ANTAGONIST COMPOUNDS AND COMBINATION THERAPIES” (Otsuka Pharmaceutical Co., Ltd., priority 2022, published 2025)
Entries after “also recorded” stand apart in the source; their conditions may differ. Read-outs that look alike come from different tables or passages of the source. Values belong to the molecule of their own block, whether it stands above or below them.

How the values were obtained:
MOLT16 cell line = test: Flow cytometry: annexin V/DAPI apoptosis and bead-based absolute cell count, MOLT16; parameters: species or system human; details: MOLT16, single agent, 5 days
Protocol: (§2) Cells were re-suspended in PBS containing CountBright beads (Invitrogen #C36950) to allow for measurement of the absolute cell number. Half-maximal inhibitory concentrations (IC50) was calculated using CalcuSyn software (BIOSOFT, Cambridge, UK).
(§3) Combination index (CI) and IC50 were determined using Calcusyn (BIOSOFT, Cambridge, UK).

SUPT11 cells = test: Flow cytometry: annexin V/DAPI apoptosis and bead-based absolute cell count, SUPT11
Protocol: as §2, §3

PF382 cells = test: Flow cytometry: annexin V/DAPI apoptosis and bead-based absolute cell count, PF382; parameters: species or system human
Protocol: as §2, §3

MOLT4 cells = test: Flow cytometry: annexin V/DAPI apoptosis and bead-based absolute cell count, MOLT4; details: MOLT4, single agent, 5 days
Protocol: as §2

JURKAT cells = test: Flow cytometry: annexin V/DAPI apoptosis and bead-based absolute cell count, JURKAT; details: single agent, 5 days
Protocol: as §2

CCRF-CEM cells = test: Flow cytometry: annexin V/DAPI apoptosis and bead-based absolute cell count, CCRF-CEM; parameters: species or system human
Protocol: as §2, §3

ALL-SIL cells = test: Flow cytometry: annexin V/DAPI apoptosis and bead-based absolute cell count, ALL-SIL; parameters: species or system human
Protocol: (§1) Combination index and IC50 were determined using Calcusyn (BIOSOFT, Cambridge, UK).

LOUCY cells [1] = test: Western blot analysis in LOUCY cells; type: cell-based, human; details: combination = Compound I + Compound II
Excerpt: Membranes were probed with specific antibodies.

LOUCY cells [2] = test: Flow cytometry: annexin V/DAPI apoptosis and bead-based absolute cell count, LOUCY; parameters: species or system human; details: for IC50: Homo sapiens
Protocol: as §1

[3] = test system: leukemia initiating cells (LICs, CD45+, CD7+, CD19-, CD34+)
[4] = test system: PDX-derived cells (CD45+ bulk)

Compound: C[C@@H]1CN(CC(=O)N2CC(C)(C)c3nc(CO)c(Cc4ccc(F)cc4)cc32)[C@@H](CN2CCOC[C@H]2C)CN1 [Compound I, 1-(6-(4-fluorobenzyl)-5-(hydroxymethyl)-3,3-dimethyl-2,3-dihydro-1H-pyrrolo [3,2-b]pyridin-1-yl)-2-((2R,5R)-5-methyl-2-(((R)-3-methylmorpholino)methyl)piperazin-1-yl)ethan-1-one]
- sensitivity to Compound I (MOLT16 cell line): least sensitive
- IC50 (SUPT11 cells; Homo sapiens, SUPT11, 120 h, Table 1, SUPT11, Compound I single agent, 5 days): 309 nM
- IC50 (SUPT11 cells; Homo sapiens, SUPT11, Table 2, SUPT11 cells, Combination = DEX + Compound I 1:1): 11.7 nM
- IC50 (SUPT11 cells; Table 1, SUPT11, Compound I single agent, 5 days): 310 nM
- sensitivity to Compound I (PF382 cells; PF382, single agent, 5 days): least sensitive
- apoptosis induction (PF382 cells; PF382, single agents or combination Compound I:DEX 1:1): no apoptosis induction
- sensitivity to Compound I (MOLT4 cells): least sensitive
- sensitivity to Compound I (JURKAT cells): least sensitive
- sensitivity to Compound I (CCRF-CEM cells; CCRF-CEM, single agent, 5 days): moderate sensitivity
- IC50 (CCRF-CEM cells; Homo sapiens, CCRF-CEM, 120 h): 17.8 µM
- sensitivity to Compound I (ALL-SIL cells; ALL-SIL, single agent, 5 days): moderate sensitivity
- IC50 (ALL-SIL cells; Homo sapiens, 120 h): 11.8 µM
- PARP expression (Western blot) (LOUCY cells [1]): decreased expression
- cIAP2 expression (Western blot) (LOUCY cells [1]): decreased expression; also recorded: decrease
- cleaved caspase 7 (Western blot) (LOUCY cells [1]): increase
- IC50 (LOUCY cells [2]; 120 h, Table 1, Loucy, Compound I single agent, 5 days): 190 nM
- IC50 (LOUCY cells [2]; Table 4, LOUCY cells, Combination = Compound II:Compound I 1:10): 190 nM

Compound: CC1(C)CCC(CN2CCN(c3ccc(C(=O)NS(=O)(=O)c4ccc(NCC5CCOCC5)c([N+](=O)[O-])c4)c(Oc4cnc5[nH]ccc5c4)c3)CC2)=C(c2ccc(Cl)cc2)C1 [Compound II, 2-((1H-pyrrolo[2,3-b]pyridin-5-yl)oxy)-4-(4-((4′-chloro-5,5-dimethyl-3,4,5,6-tetrahydro-[1,1′-biphenyl]-2-yl)methyl)piperazin-1-yl)-N-((3-nitro-4-(((tetrahydro-2H-pyran-4-yl)methyl)amino)phenyl)sulfonyl)benzamide, reference compound]
- cell death (LOUCY cells [2]; LOUCY, combination = Compound II:Compound I 1:10): 27+0.9%

- EC50 (SUPT11 cells; Homo sapiens, SUPT11, read-out: ED50, SUPT11 cells, DEX treatment alone): ~2000 nM
- EC50 (SUPT11 cells; Homo sapiens, SUPT11, read-out: ED50, Table 2, SUPT11 cells, Combination = DEX + Compound I 1:1): 2000 nM
Compound: C[C@@H]1C[C@H]2[C@@H]3CCC4=CC(=O)C=C[C@]4(C)[C@@]3(F)[C@@H](O)C[C@]2(C)[C@@]1(O)C(=O)CO [DEX, dexamethasone, reference compound]
- cytotoxic effect [3]: 62±2%
- cytotoxic effect [4]: 58±2%
- cell death (CCRF-CEM cells; CCRF-CEM (DEX-resistant), combination = Compound I:DEX 1:1): 20+3%
